# In article PMC6600542 (Molecules, 2019):
# Where “and” joins values, the source holds several entries; their conditions need not be identical. Identical values can stand only once.
# Assays:
# [1] = tested on: human plasma deficient of FIX; assay: APTT clotting assay, FIX-deficient plasma; type: biochemical
# Description: (§1) For the PT assay, thromboplastin-D was reconstituted according to the manufacturer’s directions and warmed to 37 °C. […] After incubation for 4 min at 37 °C, clotting was initiated by adding 100 μL of prewarmed 25 mM CaCl2 and the time to clotting was noted. […] To determine the in vitro effect on the APTT of deficient human plasmas, the APTT assay was repeated, using human plasmas deficient of factor VII (FVII), factor IX (FIX), FXI, or factor XII (FXII). […] The positive control used in APTT and PT assays was rivaroxaban, a clinically used FXa inhibitor. Under the conditions reported, rivaroxaban doubled the APTT and PT at concentrations of 0.123 ± 0.003 µM and 0.193 ± 0.043 µM, respectively.
# [2] = tested on: normal human plasma; assay: PT clotting assay, normal human plasma; type: biochemical; settings: for concentration to double the PT: normal human plasma (text)
# Description: as §1
# [3] = tested on: normal human plasma; assay: TT clotting assay, normal human plasma; type: biochemical; settings: for concentration to double the TT: normal human plasma (text)
# [4] = target: T1, bovine trypsin (Bos taurus, UniProt P00760); assay: Trypsin chromogenic substrate hydrolysis assay; type: biochemical; settings: pH 7.4
# T1 construct: purchased Millipore-Sigma
# T1 sequence (P00760 24-246): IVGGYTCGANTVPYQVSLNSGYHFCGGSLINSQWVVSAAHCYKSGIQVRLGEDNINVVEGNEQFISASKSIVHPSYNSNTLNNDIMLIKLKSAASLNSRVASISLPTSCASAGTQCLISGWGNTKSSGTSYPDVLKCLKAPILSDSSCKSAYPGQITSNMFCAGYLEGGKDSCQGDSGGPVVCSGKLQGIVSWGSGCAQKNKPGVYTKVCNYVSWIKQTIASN
# Description: Direct inhibition of the human coagulation transglutaminase FXIIIa was also studied using a fluorescence-based transglutamination assay as reported in the literature.
# After 10 min incubation, 5 µL FXIa substrate (6.9 mM stock concentration) was rapidly added and the residual FXIa activity was measured from the initial rate of increase in absorbance at 405 nm. Assays were performed in similar fashion with trypsin and chymotrypsin. Stock concentrations used were 18.9 µg/mL (trypsin) and 22.7 mM (S-2222) for bovine trypsin assay (final volume was 200 µL) and 2 µg/mL (chymotrypsin) and 16.2 mM (N-Succinyl-Ala-Ala-Pro-Phe-p-nitroanilide) for bovine chymotrypsin assay (final volume was 200 µL). The buffer used for FXIa, trypsin, chymotrypsin assays was 50 mM Tris-HCl buffer, pH 7.4, containing 150 mM NaCl, 2.5 mM CaCl2, 0.1% PEG8000, and 0.02% Tween80. Neutrophil elastase inhibition assay was performed in a 96-well plate with a final volume of 100 µl with 0.125 M 4-(2-hydroxyethyl)-1-piperazineethanesulfonic acid (HEPES) buffer, pH 7.4 containing 0.125% Triton-X 100, as reported earlier. […] After incubation, 3 µL neutrophil elastase substrate (S-1384; 25 mM stock conc.) was rapidly added and the residual enzyme activity measured from the initial rate of increase in the absorbance at 405 nm.
# [5] = target: T2, guinea pig transglutaminase (UniProt P08587); assay: Guinea pig transglutaminase inhibition; type: biochemical; settings: at concentrations as high as 500 µM
# T2 sequence (P08587 1-690): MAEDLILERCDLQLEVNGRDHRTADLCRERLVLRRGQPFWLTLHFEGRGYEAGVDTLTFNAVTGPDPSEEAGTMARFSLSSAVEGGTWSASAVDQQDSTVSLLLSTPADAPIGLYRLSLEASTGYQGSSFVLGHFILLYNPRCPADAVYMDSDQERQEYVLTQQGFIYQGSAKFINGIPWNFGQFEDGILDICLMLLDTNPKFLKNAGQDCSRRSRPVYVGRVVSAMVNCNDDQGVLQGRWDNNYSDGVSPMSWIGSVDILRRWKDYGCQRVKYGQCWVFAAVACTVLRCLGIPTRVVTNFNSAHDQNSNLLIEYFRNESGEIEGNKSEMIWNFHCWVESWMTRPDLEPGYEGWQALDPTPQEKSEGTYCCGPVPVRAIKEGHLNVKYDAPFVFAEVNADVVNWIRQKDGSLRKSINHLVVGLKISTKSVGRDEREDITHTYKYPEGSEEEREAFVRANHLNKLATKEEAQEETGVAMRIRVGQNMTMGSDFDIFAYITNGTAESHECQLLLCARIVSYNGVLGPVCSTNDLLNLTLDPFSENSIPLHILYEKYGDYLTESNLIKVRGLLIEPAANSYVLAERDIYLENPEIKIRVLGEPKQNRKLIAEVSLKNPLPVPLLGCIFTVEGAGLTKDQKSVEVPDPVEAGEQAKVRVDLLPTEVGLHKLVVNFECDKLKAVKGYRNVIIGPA
# [6] = tested on: clotting times; settings: cited from earlier work
smiles,measurement,setting,value
"N=C(N)c1ccc(OCCCCCOc2ccc(C(=N)N)cc2)cc1 [pentamidine isethionate, 4,4′-(pentane-1,5-diylbis(oxy))-dibenzimidamide]","APTTEC2×, concentration to double clotting time",[1],26.32 ± 3.52 µm
same,"PTEC2×, concentration to double clotting time","[2]; PT assay, normal human plasma",45.70 ± 0.85 µm
same,concentration to double the PT,[2],45.7 µM and 45.70 ± 0.85 µM
same,concentration to double the PT,[2]; listed as pentamidine,lower than 50 µM
same,"TTEC2×, concentration to double clotting time","[3]; TT assay, normal human plasma",158.17 ± 30.87 µm
same,concentration to double the TT,[3],158.17 µM and 158.17 ± 30.87 µM
same,concentration to double the TT,[3]; listed as pentamidine,> 150 µM
same,HS,[4],1.0 ± 0.2
same,IC50,[4],4.9 ± 0.8 µM
same,∆Y (efficacy),[4],116.8 ± 7.4%
same,inhibition of guinea pig transglutaminase,[5],did not inhibit
same,concentration that prolongs clotting times,[6],greater than 8.4 µM
